This passage reports IC50, inhibition and EC50 results from ChEMBL document CHEMBL5338789, “Structure-Based Development of Isoform-Selective Inhibitors of Casein Kinase 1ε vs Casein Kinase 1δ” (J Med Chem, 2023).

Active and inactive are the calls of the source. The calls are words filed in the database; no cut-off is given here. Where only a bound is given, the exact number is not on record here.

For assay [1], the target named is T1, Casein kinase I isoform delta (Homo sapiens, UniProt P48730). The experiment in a line: Inhibition of CK1delta (unknown origin) using Light-TopoIla(Thr1342) peptide as substrate incubated for 10 mins in presence of ATP by TR-FRET assay.
Target sequence in this assay (P48730 whole entry, canonical isoform): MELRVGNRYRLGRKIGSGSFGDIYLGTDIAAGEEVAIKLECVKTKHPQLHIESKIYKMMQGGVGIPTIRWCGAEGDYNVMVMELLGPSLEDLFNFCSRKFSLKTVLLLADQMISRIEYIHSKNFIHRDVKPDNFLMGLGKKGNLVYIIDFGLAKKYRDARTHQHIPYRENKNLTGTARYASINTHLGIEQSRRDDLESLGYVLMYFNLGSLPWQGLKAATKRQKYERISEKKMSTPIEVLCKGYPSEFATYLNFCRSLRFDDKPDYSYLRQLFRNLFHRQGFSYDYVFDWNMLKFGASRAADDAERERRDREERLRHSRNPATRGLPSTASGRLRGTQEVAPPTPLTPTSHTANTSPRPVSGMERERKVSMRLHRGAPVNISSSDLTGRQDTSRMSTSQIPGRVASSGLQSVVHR
The target in assay [2] is T1, Casein kinase I isoform delta. Briefly: Inhibition of N-terminal His-tagged CK1delta (unknown origin) expressed in Escherichia coli using Light-TopoIla(Thr1342) peptide as substrate at 10 uM incubated for 10 mins in presence of ATP by TR-FRET assay. (TR-FRET usually uses a lanthanide donor and a delayed reading to cut background.)
Target sequence in this assay (P48730 whole entry, looked up, canonical isoform): as the sequence (P48730 whole entry, canonical isoform) above
In another assay the test system is T-24. The experiment in a line: Antiproliferative activity against human T24 cells assessed as reduction in cell proliferation incubated for 72 hrs by Cell Titer Glo assay. Format: functional, cell-based. Conditions: T-24, 72 h. For orientation: Cellular ATP, detected with luciferase, serves as a proxy for viable cell number.
A further assay concerns 5637. Briefly: Antiproliferative activity against human 5637 cells assessed as reduction in cell proliferation incubated for 72 hrs by Cell Titer Glo assay. Conditions: Homo sapiens, 5637, 72 h. The class given is functional, cell-based.
The subject of another assay is UMUC3. The experiment in a line: Antiproliferative activity against human UMUC3 cells assessed as reduction in cell proliferation incubated for 72 hrs by Cell Titer Glo assay. Format: functional, cell-based. The note with it: UMUC3, 72 h.
The subject of the next assay is U2OS. Briefly: Antiproliferative activity against human U2OS cells assessed as reduction in cell proliferation incubated for 72 hrs by Cell Titer Glo assay. The class given is functional, cell-based.
For assay [3], the target named is T1, Casein kinase I isoform delta. Briefly: Inhibition of CK1delta (unknown origin).
Target sequence in this assay (P48730 whole entry, canonical isoform): as above
Assay [4] addresses Casein kinase I isoform epsilon (Homo sapiens, UniProt P49674). The experiment in a line: Inhibition of CK1epsilon (unknown origin).

One may read the IC50 as the midpoint of a concentration-inhibition curve. As a reminder, the EC50 is the midpoint of the concentration-response curve.

Casein kinase I isoform epsilon, sequence (P49674 whole entry, canonical isoform): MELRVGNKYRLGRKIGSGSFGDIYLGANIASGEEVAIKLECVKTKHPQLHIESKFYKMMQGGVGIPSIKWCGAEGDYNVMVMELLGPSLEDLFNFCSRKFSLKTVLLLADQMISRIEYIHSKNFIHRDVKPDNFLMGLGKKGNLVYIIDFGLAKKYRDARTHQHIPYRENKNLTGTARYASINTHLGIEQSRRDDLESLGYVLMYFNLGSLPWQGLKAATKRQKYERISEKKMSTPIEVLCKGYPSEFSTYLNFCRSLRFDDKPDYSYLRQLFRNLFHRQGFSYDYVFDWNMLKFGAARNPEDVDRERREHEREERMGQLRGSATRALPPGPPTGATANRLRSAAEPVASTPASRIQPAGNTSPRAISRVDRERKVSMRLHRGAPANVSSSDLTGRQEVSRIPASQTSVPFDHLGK

`Fc1ccc2[nH]c(CNc3nc(N4CCOCC4)nc4c3ncn4CCc3cccc(C(F)(F)F)c3)nc2c1F`: the IC50 in assay [1] is greater than 10000 nM.

As for `Fc1ccc2[nH]c(CNc3nc(N4CCOCC4)nc4c3ncn4Cc3cccc4ccccc34)nc2c1F`, in assay [1], the IC50 is greater than 10000 nM.

In the case of `CC(C)Oc1ccc(-n2cnc3c(NCc4nc5c(F)c(F)ccc5[nH]4)nc(N4CCOCC4)nc32)cc1`, the IC50 in assay [1] is greater than 10000 nM. Besides, the inhibition entry in assay [2] is “inactive”.

Turning to `Fc1ccc2[nH]c(CNc3nc(N4CCOCC4)nc4c3ncn4CCc3cccc(Br)c3)nc2c1F`, the IC50 in assay [1] was greater than 10000 nM.

Regarding `N#Cc1ccc(CCn2cnc3c(NCc4nc5c(F)c(F)ccc5[nH]4)nc(N4CCOCC4)nc32)cc1`, the IC50 in assay [1] is greater than 10000 nM.

With `Fc1cc(F)cc(CCn2cnc3c(NCc4nc5c(F)c(F)ccc5[nH]4)nc(N4CCOCC4)nc32)c1`, the IC50 in assay [1] was greater than 10000 nM.

Regarding `Fc1ccc2[nH]c(CNc3nc(N4CCOCC4)nc4c3ncn4-c3ccc4ncsc4c3)nc2c1F`, in assay [1], the half-inhibitory concentration (IC50) was greater than 10000 nM.

In the case of `COc1ccc(-n2cnc3c(NCc4nc5c(F)c(F)ccc5[nH]4)nc(N4CCOCC4)nc32)cc1`, the EC50 in the assay with T-24 worked out at 95 nM; in the assay on 5637 it was 106 nM; in the assay with UMUC3, 5780 nM; with U2OS it was 164 nM.

As to `Fc1ccc2[nH]c(CNc3nc(N4CCOCC4)nc4c3ncn4-c3ccc4c(c3)OCCO4)nc2c1F`, in assay [1], the concentration for half-maximal inhibition (IC50) was greater than 10000 nM.

For `Fc1ccc2[nH]c(CNc3nc(N4CCOCC4)nc4c3ncn4-c3ccc4ccccc4c3)nc2c1F`, the IC50 in assay [1] is greater than 10000 nM. The EC50 came out at 265 nM with T-24, 314 nM with 5637, 540 nM in the assay with UMUC3 and 373 nM with U2OS.

`Fc1ccc2[nH]c(CNc3nc(N4CCOCC4)nc4c3ncn4Cc3ccc4ccccc4c3)nc2c1F`: the IC50 in assay [1] is greater than 10000 nM.

As to `O=C(Nc1nc2cc(Cl)c(F)cc2[nH]1)c1coc(NC(=O)c2ccccc2OC(F)(F)F)n1`, the IC50 worked out at 42 nM in assay [3] and 33 nM in assay [4].

In the case of `Fc1ccc2[nH]c(CNc3nc(N4CCOCC4)nc4c3ncn4CCc3ccc(C(F)(F)F)cc3)nc2c1F`, the 50% inhibitory concentration (IC50) in assay [1] was greater than 10000 nM. Further, the inhibition entry in assay [2] was “inactive”.

For `Fc1cccc(-n2cnc3c(NCc4nc5c(F)c(F)ccc5[nH]4)nc(N4CCOCC4)nc32)c1`, the EC50 with T-24 came to 8 nM; in the assay on 5637, 6 nM; in the assay with UMUC3 it was 26 nM; in the assay on U2OS, 9 nM.

As for `CCOc1ccc(-n2cnc3c(NCc4nc5c(F)c(F)ccc5[nH]4)nc(N4CCOCC4)nc32)cc1`, the IC50 in assay [1] is greater than 10000 nM.

With `Fc1ccc2[nH]c(CNc3nc(N4CCOCC4)nc4c3ncn4CCc3cccc(Cl)c3)nc2c1F`, the IC50 in assay [1] is greater than 10000 nM. In assay [2], the inhibition result was “inactive”.

In the case of `Fc1cccc(Cn2cnc3c(NCc4nc5c(F)c(F)ccc5[nH]4)nc(N4CCOCC4)nc32)c1`, in assay [1], the IC50 was greater than 10000 nM.

For the molecule `Fc1cccc(CCn2cnc3c(NCc4nc5c(F)c(F)ccc5[nH]4)nc(N4CCOCC4)nc32)c1`, in assay [1], the half-inhibitory concentration (IC50) is greater than 10000 nM.
